According to patent publication EP4810040A2, “INHIBITORS OF APOL1 AND METHODS OF USING SAME” (priority 2020, dated 2022):
Like-named read-outs stand apart in the source and are kept apart here.

Biological target: T1, APOL1 G1 (Homo sapiens, UniProt O14791, I384M/S342G)
T1 sequence (O14791 28-398 S342G/I384M): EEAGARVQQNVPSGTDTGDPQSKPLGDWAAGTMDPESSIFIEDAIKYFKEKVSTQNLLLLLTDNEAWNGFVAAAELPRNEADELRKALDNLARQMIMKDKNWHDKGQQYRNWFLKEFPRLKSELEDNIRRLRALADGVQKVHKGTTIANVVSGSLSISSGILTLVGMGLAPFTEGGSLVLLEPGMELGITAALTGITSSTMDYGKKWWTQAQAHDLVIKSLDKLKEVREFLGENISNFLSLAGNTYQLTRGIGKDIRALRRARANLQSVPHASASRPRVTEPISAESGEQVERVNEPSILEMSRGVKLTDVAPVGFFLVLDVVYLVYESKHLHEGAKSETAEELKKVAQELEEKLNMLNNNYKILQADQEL
Experiment: MultiTox-Fluor Multiplex Cytotoxicity Assay, tet-inducible APOL1 G1 T-REx-HEK293 cells
Type: cell-based
Set-up: expressed in transfected cells; host or cells: T-REx HEK293, clone G1 DC3.25 (pAAVS1-Puro-APOL1 G1)
Conditions: for IC90: HEK293, Multi-Tox Assay, APOL1 variant (G0/G1/G2) of the HEK293 cells not given, read-out: Multi-Tox Assay IC90; for Emax: read-out: Multi-Tox Assay Max Activity (%)
In short: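 T-REx-HEK293 cells carrying tet-inducible APOL1 G1 induced with 50 ng/mL tet alongside compound (top 10 µM, 10-point 3-fold, duplicate) for 24 h at 37 °C. MultiTox-Fluor dead/live protease fluorescence ratio read after 30 min; normalized to no-tet (100% viability) and tet-treated (0%) controls, then curve-fitted.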

[1] = Multi-Tox Assay, APOL1 variant not given

Compound	IC90 [nM]	Multi-Tox Assay Max Activity (%) [1] [%]	Emax [1] [%]	Emax [%]
CC1COC2(C[C@@H](c3cn(C)nn3)N[C@@H](C)C2)c2cc(C(F)(F)F)sc21 (stereo partly drawn) [Compound 14]	50 to 500	99.3	–	–
C[C@H]1C[C@@]2(C[C@@H](c3cn(C)nn3)N1)OCCc1c2sc(C(F)(F)F)c1CO [Compound 17, [(2'S,6'S,7S)-2'-methyl-6'-(1-methyltriazol-4-yl)-2-(trifluoromethyl)spiro[4,5-dihydrothieno[2,3-c]pyran-7,4'-piperidine]-3-yl]methanol]	< 50	–	100	–
C[C@H]1C[C@@]2(C[C@@H](c3cnn(CC(=O)N(C)C)c3)N1)OCCc1cc(Cl)sc12 [Compound 18, 2-[4-[(2S, 6S)-2-chloro-6'-methyl-spiro[4,5-dihydrothieno[2,3-c]pyran-7,4'-piperidine]-2'-yl]pyrazol-1-yl]-N,N-dimethyl-acetamide]	< 50	–	99.5	–
C[C@H]1C[C@@]2(C[C@@H](c3cnn(C)c3)N1)OCCc1cc(Cl)sc12 [Compound 19, (2S)-2-chloro-2'-methyl-6'-(1-methylpyrazol-4-yl)spiro[4,5-dihydrothieno[2,3-c]pyran-7,4'-piperidine]]	< 50	–	99.3	–
CC1CC2(CC(c3cccc(C#N)c3)N1)OCCc1cc(Cl)sc12 (stereo not drawn) [Compound 24]	< 50	100.0	–	–
CNC(=O)c1cccc(C2CC3(CC(C)N2)OCCc2cc(Cl)sc23)c1 (stereo not drawn) [Compound 27]	< 50	100.3	–	–
CC1CC2(CC(c3ccncc3)N1)OCCc1cc(Cl)sc12 (stereo not drawn) [Compound 30]	< 50	–	–	–
CC1CC2(CC(c3cc(F)cc(C#N)c3)N1)OCCc1cc(Cl)sc12 (stereo not drawn) [Compound 33]	< 50	98.7	–	–
COc1ccc(C2CC3(CC(C)N2)OCCc2cc(Cl)sc23)nc1 (stereo not drawn) [Compound 34]	< 50	–	–	–
CC1CC2(CC(c3ccc4[nH]ncc4c3)N1)OCCc1cc(Cl)sc12 (stereo not drawn) [Compound 35]	< 50	99.3	–	–
CC(=O)Nc1ccc(C2CC3(CC(C)N2)OCCc2cc(Cl)sc23)cn1 (stereo not drawn) [Compound 37]	< 50	–	99.7	–
CC1CC2(CC(c3cnn(C)n3)N1)OCCc1cc(Cl)sc12 (stereo not drawn) [Compound 38]	< 50	–	100	–
CC1CC2(CC(c3ccc4c(c3)OCC(=O)N4)N1)OCCc1cc(Cl)sc12 (stereo not drawn) [Compound 39]	< 50	–	99.7	–
CC1CC2(CC(c3cnn(-c4cccnc4)c3)N1)OCCc1cc(Cl)sc12 (stereo not drawn) [Compound 40]	< 50	100.0	–	–
CNC(=O)c1ccc(C2CC3(CC(C)N2)OCCc2cc(Cl)sc23)cc1 (stereo not drawn) [Compound 41]	< 50	99.7	–	–
Cc1nn(C)c2ncc(C3CC4(CC(C)N3)OCCc3cc(Cl)sc34)cc12 (stereo not drawn) [Compound 42]	< 50	99.7	–	–
Cc1cc(C2CC3(CC(C)N2)OCCc2cc(Cl)sc23)ncn1 (stereo not drawn) [Compound 43]	< 50	100.0	–	–
CC1CC2(CC(c3cncnc3)N1)OCCc1cc(Cl)sc12 (stereo not drawn) [Compound 45]	< 50	100.0	–	–
CC1CC2(CC(c3cnn(CCS(C)(=O)=O)c3)N1)OCCc1cc(Cl)sc12 (stereo not drawn) [Compound 46]	< 50	–	–	–
C[C@H]1C[C@@]2(C[C@@H](c3ccc(O)c(F)c3)N1)OCCc1cc(Cl)sc12 [Compound 51]	< 50	99.7	–	–
C[C@H]1C[C@@]2(C[C@@H](c3cnc(-c4cnn(C)c4)nc3)N1)OCCc1cc(Cl)sc12 [Compound 61]	< 50	–	99.7	–
C[C@H]1C[C@@]2(C[C@@H](c3ccc(O)nn3)N1)OCCc1cc(Cl)sc12 [Compound 86]	< 50	–	99.5	–
CCc1cc([C@@H]2C[C@]3(C[C@H](C)N2)OCCc2cc(Cl)sc23)on1 [Compound 91]	< 50	–	100	–

Compound	IC90 [nM]	Multi-Tox Assay Max Activity (%) [1] [%]	Emax [1] [%]	Emax [%]
C[C@H]1C[C@@]2(C[C@@H](c3cnn(C4CCS(=O)(=O)C4)c3)N1)OCCc1cc(Cl)sc12 (stereo partly drawn) [Compound 97]	< 50	–	–	99
C[C@H]1C[C@@]2(C[C@@H](c3cc(C4CCOCC4)[nH]n3)N1)OCCc1cc(Cl)sc12 [Compound 114]	50 to 500	99.7	–	–
C[C@H]1C[C@@]2(C[C@@H](c3cc(C(F)(F)F)[nH]n3)N1)OCCc1cc(Cl)sc12 [Compound 119]	50 to 500	99.7	–	–
CC1CC2(CC(c3cn(CC4CC4)nn3)N1)OCCc1cc(Cl)sc12 (stereo not drawn) [Compound 122]	50 to 500	99.7	–	–
C[C@H]1C[C@@]2(C[C@@H](c3cccn4ccnc34)N1)OCCc1cc(Cl)sc12 [Compound 143]	50 to 500	98.0	–	–
C[C@H]1C[C@@]2(C[C@@H](c3cn(C)nn3)N1)OC[C@@H](O)c1cc(Cl)sc12 [Compound 174, (2'S, 4S, 6'S, 7S)-2-chloro-2'-methyl-6'-(1-methyltriazol-4-yl)spiro[4,5-dihydrothieno[2,3-c]pyran-7,4'-piperidine]-4-ol]	< 50	–	99.8	–
C[C@H]1C[C@@]2(C[C@@H](c3cn(C)nn3)N1)OC[C@H](O)c1cc(Cl)sc12 [Compound 177, (2'S,4R,6'S,7S)-2-chloro-2'-methyl-6'-(1-methyltriazol-4-yl)spiro[4,5-dihydrothieno[2,3-c]pyran-7,4'-piperidine]-4-ol]	< 50	–	100	–
C[C@H]1C[C@@]2(C[C@@H](c3cn(C)nn3)N1)OC[C@H](O)c1cc(C(F)(F)F)sc12 [Compound 180]	< 50	–	99.8	–
C[C@H]1C[C@@]2(C[C@@H](c3cn(C)nn3)N1)OC[C@@H](O)c1cc(C(F)(F)F)sc12 [Compound 181, (2S,4S,4'S,6S)-2-methyl-6-(1-methyl-1H-1,2,3-triazol-4-yl)-2'-(trifluoromethyl)-4',5'-dihydrospiro[piperidine-4, 7'-thieno[2,3-c]pyran]-4'-ol]	< 50	–	99.8	–
C[C@H]1C[C@@]2(C[C@@H](c3cn(C)nn3)N1)OC[C@@H](O)c1sc(Cl)cc12 [Compound 182]	< 50	–	100	–
C[C@H]1C[C@@]2(C[C@@H](c3cn(C)nn3)N1)OCC(F)(F)c1cc(Cl)sc12 [Compound 183, (2'S, 6'S, 7S)-2-chloro-4,4-difluoro-2'-methyl-6'-(1-methyltriazol-4-yl)spiro[5H-thieno[2,3-c]pyran-7,4'-piperidine]]	< 50	–	99.5	–
Cn1cc(C2CC3(CC(C4CCC4)N2)OCCc2cc(Cl)sc23)nn1 (stereo not drawn) [Compound 189]	> 500	–	97	–
COCC1CC2(CC(c3cn(C)nn3)N1)OCCc1cc(Cl)sc12 (stereo not drawn) [Compound 190]	50 to 500	–	99	–
CC(C)C1CC2(CC(c3cn(C)nn3)N1)OCCc1cc(C(F)(F)F)sc12 (stereo not drawn) [Compound 191]	50 to 500	–	99.7	–
Cn1cc(C2CC3(CC(C4CCC4)N2)OCCc2cc(C(F)(F)F)sc23)nn1 (stereo not drawn) [Compound 192]	50 to 500	–	99	–
COCC1CC2(CC(c3cn(C)nn3)N1)OCCc1cc(C(F)(F)F)sc12 (stereo not drawn) [Compound 193]	50 to 500	–	99	–
C[C@H]1CC2(C[C@H](C)N1)OCCc1sc(C(F)(F)F)cc12 (stereo partly drawn) [Compound 195]	> 500	–	76	–
C[C@H]1C[C@@]2(C[C@@H](CC3CCOCC3)N1)OCCc1cc(Cl)sc12 [Compound 219, (2S,6R)-2-chloro-2'-methyl-6'-(tetrahydropyran-4-ylmethyl)spiro[4,5-dihydrothieno[2,3-c]pyran-7,4'-piperidine]]	> 500	–	88.7	–
C[C@H]1C[C@@]2(C[C@@H](C3CC3)N1)OCC(O)c1cc(Cl)sc12 (stereo partly drawn) [Compound 220, (2'S,6'S,7S)-2-chloro-2'-cyclopropyl-6'-methyl-spiro[4,5-dihydrothieno[2,3-c]pyran-7,4'-piperidine]-4-ol]	< 50	–	99.3	–
C#C[C@@H]1C[C@]2(C[C@H](C)N1)OCCc1cc(Cl)sc12 [Compound 221, (2S,4S,6S)-2'-chloro-2-ethynyl-6-methyl-4',5'-dihydrospiro[piperidine-4,7'-thieno[2,3-c]pyran]]	50 to 500	–	99	–
C#C[C@@H]1C[C@]2(C[C@H](C)N1)OC[C@@H](O)c1cc(Cl)sc12 [Compound 222, (2'S,4S,6'S,7S)-2-chloro-2'-ethynyl-6'-methyl-spiro[4,5-dihydrothieno[2,3-c]pyran-7,4'-piperidine]-4-ol]	50 to 500	–	100	–
C#C[C@@H]1C[C@]2(C[C@H](C)N1)OCC(F)(F)c1cc(Cl)sc12 [Compound 223, (2'S,6'S,7S)-2-chloro-2'-ethynyl-4,4-difluoro-6'-methyl-spiro[5H-thieno[2,3-c]pyran-7,4'-piperidine]]	> 500	–	93	–
